Source: doi:10.1101/2025.06.09.658245v1 (biorxiv, 2025)

Legend:
hALOX12B = target: T1, hALOX12B (Homo sapiens, UniProt O75342); experiment: biochemical; details: read-out: % inhibition of ALOX12B enzyme activity
T1 sequence (O75342 1-701): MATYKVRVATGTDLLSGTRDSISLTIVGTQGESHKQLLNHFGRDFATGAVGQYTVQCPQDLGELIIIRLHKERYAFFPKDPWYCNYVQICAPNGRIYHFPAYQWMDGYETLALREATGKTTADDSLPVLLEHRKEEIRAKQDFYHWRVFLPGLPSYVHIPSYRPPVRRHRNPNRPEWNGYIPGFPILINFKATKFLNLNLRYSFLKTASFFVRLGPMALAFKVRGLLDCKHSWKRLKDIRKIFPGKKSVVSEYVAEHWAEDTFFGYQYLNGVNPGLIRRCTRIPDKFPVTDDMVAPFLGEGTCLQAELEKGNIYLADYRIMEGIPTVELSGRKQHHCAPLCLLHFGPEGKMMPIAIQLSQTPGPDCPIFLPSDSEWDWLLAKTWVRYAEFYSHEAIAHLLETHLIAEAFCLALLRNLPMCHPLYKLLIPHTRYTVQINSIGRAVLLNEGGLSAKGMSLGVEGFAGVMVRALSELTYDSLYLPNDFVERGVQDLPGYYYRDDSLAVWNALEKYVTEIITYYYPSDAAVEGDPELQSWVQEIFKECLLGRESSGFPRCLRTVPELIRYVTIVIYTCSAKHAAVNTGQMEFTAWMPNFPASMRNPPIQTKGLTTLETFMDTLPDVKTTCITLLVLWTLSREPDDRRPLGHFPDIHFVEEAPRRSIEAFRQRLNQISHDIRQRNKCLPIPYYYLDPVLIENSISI

hERG [1] = target: T2, hERG (Homo sapiens, UniProt Q12809); experiment: in vitro; details: HEK
in vitro [2] = details: mouse, liver microsomes
in vitro [3] = details: mouse, liver microsomes; remark: listed apart in the source
hERG [4] = target: T2, hERG; experiment: in vitro; details: HEK; remark: listed apart in the source
hERG [5] = target: T2, hERG; experiment: whole-cell patch clamp, IKr current; format: cell-based; details: test concentrations 0.3 to 30 µM; HEK cells stably transfected

T2 sequence (Q12809 whole entry): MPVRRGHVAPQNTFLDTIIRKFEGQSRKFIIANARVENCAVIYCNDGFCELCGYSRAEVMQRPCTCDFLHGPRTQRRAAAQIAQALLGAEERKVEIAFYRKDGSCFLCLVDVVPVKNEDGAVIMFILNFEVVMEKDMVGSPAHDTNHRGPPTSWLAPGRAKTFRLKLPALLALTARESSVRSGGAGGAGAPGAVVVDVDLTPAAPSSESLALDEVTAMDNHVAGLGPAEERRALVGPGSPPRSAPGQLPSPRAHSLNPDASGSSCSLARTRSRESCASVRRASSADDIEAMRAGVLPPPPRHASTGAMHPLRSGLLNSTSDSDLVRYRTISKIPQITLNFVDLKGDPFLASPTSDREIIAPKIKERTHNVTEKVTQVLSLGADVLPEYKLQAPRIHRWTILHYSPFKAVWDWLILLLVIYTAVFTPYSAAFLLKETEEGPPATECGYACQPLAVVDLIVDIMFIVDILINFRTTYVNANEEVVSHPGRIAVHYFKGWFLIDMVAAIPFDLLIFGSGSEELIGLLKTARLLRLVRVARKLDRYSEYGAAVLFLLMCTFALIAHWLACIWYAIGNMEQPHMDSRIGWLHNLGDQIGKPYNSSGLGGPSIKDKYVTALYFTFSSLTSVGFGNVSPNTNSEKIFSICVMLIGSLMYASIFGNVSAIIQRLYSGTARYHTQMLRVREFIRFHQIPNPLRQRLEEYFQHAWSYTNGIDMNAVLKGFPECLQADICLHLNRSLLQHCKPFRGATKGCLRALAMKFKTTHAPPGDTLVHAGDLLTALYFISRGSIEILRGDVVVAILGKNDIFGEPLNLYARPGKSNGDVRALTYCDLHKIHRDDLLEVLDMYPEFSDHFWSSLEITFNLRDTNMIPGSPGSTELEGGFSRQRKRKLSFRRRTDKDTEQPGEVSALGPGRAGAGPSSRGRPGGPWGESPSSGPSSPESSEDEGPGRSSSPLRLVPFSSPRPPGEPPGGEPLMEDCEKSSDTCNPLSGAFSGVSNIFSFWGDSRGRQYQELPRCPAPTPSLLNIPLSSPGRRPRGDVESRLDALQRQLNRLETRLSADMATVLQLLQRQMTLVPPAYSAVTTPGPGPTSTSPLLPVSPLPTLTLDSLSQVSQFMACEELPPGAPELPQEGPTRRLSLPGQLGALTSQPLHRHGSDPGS

| SMILES | inhibition at 10 µM (hALOX12B) | inhibition at 100 µM (hALOX12B) | inhibition at 200 µM (hALOX12B) | inhibition at 0.3 µM (hERG [1]) | inhibition at 1 µM (hERG [1]) | inhibition at 3 µM (hERG [1]) | inhibition at 10 µM (hERG [1]) | inhibition at 30 µM (hERG [1]) | half-life at 5 µM (in vitro [2]) | microsomal CLint at 5 µM (in vitro [3]) | inhibition at 0.1 µM (hERG [4]) | % reduction of hERG current at 0.3 to 30 μM (hERG [5]) |
| --- | --- | --- | --- | --- | --- | --- | --- | --- | --- | --- | --- | --- |
| Nc1ccc(O)cc1-c1cc(=O)c2ccccc2o1 [6a, 2-(2-amino-5-hydroxyphenyl)-4H-chromen-4-one] | ~23% | ~40% | ~52% | 13.3% | 14.1% | 10.6% | 10.9% | 9.05% | 8.25 h | 5.6 µL/min/mg | -8.53% |  |
| Nc1ccc(O)cc1-c1cc(=O)c2ccccc2o1 [6a] |  |  |  |  |  |  |  |  |  |  |  | 9-14% |
